Laboratory results from US8906925B2, “Pyrido[4,3-B]indoles containing rigid moieties” (Medivation Technologies, Inc., priority 2008, dated 2014).

What was measured:
[1] = system: C57Bl/6J mice; test: PCP-induced hyperactivity, open field test; format: in vivo, mouse; settings: p.o. 30 min prior to PCP (5.0 mg/kg i.p.), 90 min. test
Procedure: One exemplary model for testing the activity of one or more compounds described herein to treat and/or prevent and/or delay the onset and/or development of schizophrenia employs phencyclidine (PCP), which is administered to the animal (e.g., non-primate (rat) or primate (monkey)), resulting in dysfunctions similar to those seen in schizophrenic humans. See Jentsch et al., 1997, Science 277:953-955 and Piercey et al., 1988, Life Sci. 43(4):375-385). Standard experimental protocols may be employed in this or in other animal models. One protocol involves PCP-induced hyperactivity.
(§1) Male C57Bl/6J mice from Jackson Laboratories (Bar Harbor, Me.) were used. Mice were received at 6-weeks of age. Upon receipt, mice were assigned unique identification numbers (tail marked) and were group housed with 4 mice/cage in OPTIMICE ventilated cages. All animals remained housed in groups of four during the remainder of the study. All mice were acclimated to the colony room for at least two weeks prior to testing and were subsequently tested at an average age of 8 weeks of age. During the period of acclimation, mice were examined on a regular basis, handled, and weighed to assure adequate health and suitability. Animals were maintained on a 12 h/12 h light/dark cycle. The room temperature was maintained between 20 and 23° C. with a relative humidity maintained between 30% and 70%. Food and water were provided ad libitum for the duration of the study. In each test, animals were randomly assigned across treatment groups.
The following compounds were used for this study: 1) Compound Nos 83, 88, 90 (0.03, 0.1, 0.3, 1, 3, 10 & 30 mg/kg) was dissolved in 5% PEG-200 in sterile water and administered p.o. 30 min prior to PCP injection; 2) Clozapine (1.0 mg/kg) was dissolved in 10% DMSO and administered i.p. 30 min prior to phencyclidine (PCP) injection; 3) PCP (5.0 mg/kg) was dissolved in sterile water and administered i.p. immediately before the 60 min. test. All compounds were administered at a dose volume of 10 mL/kg.
The open filed (OF) test assesses locomotor behavior, i.e. to measure mouse locomotor activity at baseline and in response to pharmacological agents. The open field chambers are Plexiglas square chambers (27.3×27.3×20.3 cm; Med Associates Inc., St Albans, Vt.) surrounded by infrared photobeams (16×16×16) to measure horizontal and vertical activity. […] Distance traveled was measured from horizontal beam breaks as the mouse moved whereas rearing activity was measured from vertical beam breaks. […]
Data were analyzed by analysis of variance (ANOVA) followed by post-hoc comparisons with Fisher Tests when appropriate. Baseline activity was measured during the first 30 min. of the test prior to PCP injection. PCP-induced activity was measured during the 60 min. following PCP injection. […]

[2] = system: C57B1I6J mice; test: Catalepsy in the mouse bar test (EPS model); format: in vivo; settings: for effects on catalepsy, ANOVA: 0.03, 0.1, 0.3, 1, 3, 10, 30 oral, 30 min, 1 h, and 3 h, incl. haloperidol group
Excerpt: Antipsychotic drugs are known to induce extrapyramidal syndrome (EPS) in animals and in humans. An animal model considered to be predictive of EPS is the mouse bar test, which measures cataleptic responses to pharmacological agents.
as §1, with “Male C57B1I6J” for “Male C57Bl/6J”, “in OptiMICE” for “in OPTIMICE”, “8 weeks.” for “8 weeks of age.”, “70%. Chow” for “70%. Food”
The following compounds were used for this study. 1) Compound No. 83, 88 or 90 (0.03, 0.1, 0.3, 1, 3, 10, 30) was dissolved in 3% Tween in PBS and administered orally at a dose volume of 10 mL/kg; 2) Haloperidol (2 mg/kg) was dissolved in 10% DMSO and administered i.p. at a dose volume of 10 mL/kg.
The front paws of a mouse were placed on a horizontal metal bar raised 2″ above a Plexiglas platform and time was recorded for up to 30 seconds per trial. The test ended when the animal's front paws returned to the platform or after 30 seconds. The test was repeated three times and the average of the three trials was reported as the intensity index of catalepsy. Antipsychotic agents such as haloperidol cause rigidity as a side effect. Animals treated with haloperidol will hold on to the bar without moving for several minutes. Mice were brought to the activity experimental room for at least 1 h acclimation to the experimental room conditions prior to testing. Following injection of either vehicle, Compound No. 83, 88 or 90, or haloperidol, catalepsy was assessed at 3 time points: 30 min, 1 h, and 3 h. At the end of each trial, the apparatus was thoroughly cleaned with 70% ethanol.
Data were analyzed by analysis of variance (ANOVA) followed by post-hoc comparisons with Fisher Tests when appropriate. An effect was considered significant if p<0.05.

SMILES	Total Distance Traveled (center+periphery), ANOVA [1]	Total Rearing (center+periphery), ANOVA [1]	sedation observed in bar test ([2]; 10 mg/kg, oral)	effects on catalepsy, ANOVA [2]	sedation observed in bar test ([2]; 30 mg/kg, oral)	other effects in bar test ([2]; doses other than 30 mg/kg, oral)	latency to hold the bar ([2]; 10 mg/kg, oral)
C/C(=C\n1c2c(c3cc(Cl)ccc31)CN(C)CC2)c1ccc(F)cc1 [Compound 83, (E)-8-chloro-5-(2-(4-fluorophenyl)prop-1-enyl)-2,3,4,5-tetrahydro-2-methyl-1H-pyrido[4,3-b]indole]	significant treatment effect	significant treatment effect	also caused sedation, but at lower levels	significant treatment effect	caused sedation		
C/C(=C\n1c2c(c3cc(C)ccc31)CN(C)CC2)c1ccncc1 [Compound 88, (E)-2,3,4,5-tetrahydro-2,8-dimethyl-5-(2-(pyridin-4-yl)prop-1-enyl)-1H-pyrido[4,3-b]indole]	significant treatment effect			significant treatment effect	caused sedation	No other effects	
C/C(=C\n1c2c(c3cc(Cl)ccc31)CN(C)CC2)c1ccncc1 [Compound 90, (E)-8-chloro-2,3,4,5-tetrahydro-2-methyl-5-(2-(pyridin-4-yl)prop-1-enyl)-1H-pyrido[4,3-b]indole]	significant treatment effect		also caused sedation, but at lower levels	significant treatment effect	caused high levels of sedation		increase
